Columns and labels:
Format in all cases: functional
Details in all cases: read-out: Activity
[1] = system: CCRF-CEM; assay: Growth inhibition of human CCRF-CEM cells assessed as cell growth at 10 uM incubated for 48 hrs by sulforhodamine B assay relative to control
[2] = system: HL-60(TB); assay: Growth inhibition of human HL-60(TB) cells assessed as cell growth at 10 uM incubated for 48 hrs by sulforhodamine B assay relative to control
[3] = system: K562; assay: Growth inhibition of human K562 cells assessed as cell growth at 10 uM incubated for 48 hrs by sulforhodamine B assay relative to control
[4] = system: MOLT-4; assay: Growth inhibition of human MOLT-4 cells assessed as cell growth at 10 uM incubated for 48 hrs by sulforhodamine B assay relative to control
[5] = system: RPMI-8226; assay: Growth inhibition of human RPMI-8226 cells assessed as cell growth at 10 uM incubated for 48 hrs by sulforhodamine B assay relative to control
[6] = system: HOP-62; assay: Growth inhibition of human HOP-62 cells assessed as cell growth at 10 uM incubated for 48 hrs by sulforhodamine B assay relative to control
[7] = system: NCI-H23; assay: Growth inhibition of human NCI-H23 cells assessed as cell growth at 10 uM incubated for 48 hrs by sulforhodamine B assay relative to control
[8] = system: NCI-H322M; assay: Growth inhibition of human NCI-H322M cells assessed as cell growth at 10 uM incubated for 48 hrs by sulforhodamine B assay relative to control
[9] = system: NCI-H522; assay: Growth inhibition of human NCI-H522 cells assessed as cell growth at 10 uM incubated for 48 hrs by sulforhodamine B assay relative to control
[10] = system: COLO 205; assay: Growth inhibition of human COLO 205 cells assessed as cell growth at 10 uM incubated for 48 hrs by sulforhodamine B assay relative to control
[11] = system: HCC 2998; assay: Growth inhibition of human HCC 2998 cells assessed as cell growth at 10 uM incubated for 48 hrs by sulforhodamine B assay relative to control
[12] = system: HCT-116; assay: Growth inhibition of human HCT-116 cells assessed as cell growth at 10 uM incubated for 48 hrs by sulforhodamine B assay relative to control
[13] = system: HCT-15; assay: Growth inhibition of human HCT-15 cells assessed as cell growth at 10 uM incubated for 48 hrs by sulforhodamine B assay relative to control
[14] = system: HT-29; assay: Growth inhibition of human HT-29 cells assessed as cell growth at 10 uM incubated for 48 hrs by sulforhodamine B assay relative to control
[15] = system: KM12; assay: Growth inhibition of human KM12 cells assessed as cell growth at 10 uM incubated for 48 hrs by sulforhodamine B assay relative to control
[16] = system: SF-268; assay: Growth inhibition of human SF-268 cells assessed as cell growth at 10 uM incubated for 48 hrs by sulforhodamine B assay relative to control
[17] = system: SF-539; assay: Growth inhibition of human SF-539 cells assessed as cell growth at 10 uM incubated for 48 hrs by sulforhodamine B assay relative to control
[18] = system: SNB-19; assay: Growth inhibition of human SNB-19 cells assessed as cell growth at 10 uM incubated for 48 hrs by sulforhodamine B assay relative to control
[19] = system: SNB-75; assay: Growth inhibition of human SNB-75 cells assessed as cell growth at 10 uM incubated for 48 hrs by sulforhodamine B assay relative to control
[20] = system: U-251; assay: Growth inhibition of human U-251 cells assessed as cell growth at 10 uM incubated for 48 hrs by sulforhodamine B assay relative to control
[21] = system: Malme-3M; assay: Growth inhibition of human Malme-3M cells assessed as cell growth at 10 uM incubated for 48 hrs by sulforhodamine B assay relative to control
[22] = system: M14; assay: Growth inhibition of human M14 cells assessed as cell growth at 10 uM incubated for 48 hrs by sulforhodamine B assay relative to control
[23] = system: MDA-MB-435; assay: Growth inhibition of human MDA-MB-435 cells assessed as cell growth at 10 uM incubated for 48 hrs by sulforhodamine B assay relative to control
[24] = system: SK-MEL-2; assay: Growth inhibition of human SK-MEL-2 cells assessed as cell growth at 10 uM incubated for 48 hrs by sulforhodamine B assay relative to control
[25] = system: UACC-62; assay: Growth inhibition of human UACC-62 cells assessed as cell growth at 10 uM incubated for 48 hrs by sulforhodamine B assay relative to control
[26] = system: OVCAR-3; assay: Growth inhibition of human OVCAR-3 cells assessed as cell growth at 10 uM incubated for 48 hrs by sulforhodamine B assay relative to control
[27] = system: OVCAR-5; assay: Growth inhibition of human OVCAR-5 cells assessed as cell growth at 10 uM incubated for 48 hrs by sulforhodamine B assay relative to control
[28] = system: OVCAR-8; assay: Growth inhibition of human OVCAR-8 cells assessed as cell growth at 10 uM incubated for 48 hrs by sulforhodamine B assay relative to control
[29] = system: SK-OV-3; assay: Growth inhibition of human SK-OV-3 cells assessed as cell growth at 10 uM incubated for 48 hrs by sulforhodamine B assay relative to control
[30] = system: ACHN; assay: Growth inhibition of human ACHN cells assessed as cell growth at 10 uM incubated for 48 hrs by sulforhodamine B assay relative to control
[31] = system: CAKI-1; assay: Growth inhibition of human CAKI-1 cells assessed as cell growth at 10 uM incubated for 48 hrs by sulforhodamine B assay relative to control
[32] = system: RXF 393; assay: Growth inhibition of human RXF 393 cells assessed as cell growth at 10 uM incubated for 48 hrs by sulforhodamine B assay relative to control
[33] = system: UO-31; assay: Growth inhibition of human UO-31 cells assessed as cell growth at 10 uM incubated for 48 hrs by sulforhodamine B assay relative to control
[34] = system: PC-3; assay: Growth inhibition of human PC-3 cells assessed as cell growth at 10 uM incubated for 48 hrs by sulforhodamine B assay relative to control
[35] = system: DU-145; assay: Growth inhibition of human DU-145 cells assessed as cell growth at 10 uM incubated for 48 hrs by sulforhodamine B assay relative to control
[36] = system: MCF7; assay: Growth inhibition of human MCF7 cells assessed as cell growth at 10 uM incubated for 48 hrs by sulforhodamine B assay relative to control
[37] = system: BT-549; assay: Growth inhibition of human BT-549 cells assessed as cell growth at 10 uM incubated for 48 hrs by sulforhodamine B assay relative to control
[38] = system: T47D; assay: Growth inhibition of human T47D cells assessed as cell growth at 10 uM incubated for 48 hrs by sulforhodamine B assay relative to control
[39] = system: MDA-MB-468; assay: Growth inhibition of human MDA-MB-468 cells assessed as cell growth at 10 uM incubated for 48 hrs by sulforhodamine B assay relative to control

CC(=O)Nc1cc(CO)cc(NC(=O)c2ccc(C(=O)NCCCN(C)C)cc2)c1
growth at 10 µM [1]: 90%
growth at 10 µM [2]: 104%
growth at 10 µM [3]: 104%
growth at 10 µM [4]: 95.4%
growth at 10 µM [5]: 98.2%
growth at 10 µM [6]: 110%
growth at 10 µM [7]: 104%
growth at 10 µM [8]: 121%
growth at 10 µM [9]: 88.4%
growth at 10 µM [10]: 114%
growth at 10 µM [11]: 102%
growth at 10 µM [12]: 104%
growth at 10 µM [13]: 106%
growth at 10 µM [14]: 100%
growth at 10 µM [15]: 118%
growth at 10 µM [16]: 114%
growth at 10 µM [17]: 110%
growth at 10 µM [18]: 101%
growth at 10 µM [19]: 87.8%
growth at 10 µM [20]: 107%
growth at 10 µM [21]: 100%
growth at 10 µM [22]: 98.6%
growth at 10 µM [23]: 103%
growth at 10 µM [24]: 92.9%
growth at 10 µM [25]: 95.9%
growth at 10 µM [26]: 129%
growth at 10 µM [27]: 107%
growth at 10 µM [28]: 108%
growth at 10 µM [29]: 106%
growth at 10 µM [30]: 108%
growth at 10 µM [31]: 109%
growth at 10 µM [32]: 116%
growth at 10 µM [33]: 98.1%
growth at 10 µM [34]: 97.9%
growth at 10 µM [35]: 115%
growth at 10 µM [36]: 101%
growth at 10 µM [37]: 98.6%
growth at 10 µM [38]: 92.9%
growth at 10 µM [39]: 91.2%

CC(=O)Nc1cccc(NC(=O)c2ccc(C(=O)Nc3cc(CCl)cc(NC(C)=O)c3)cc2)c1
growth at 10 µM [1]: 90.8%
growth at 10 µM [2]: 93.4%
growth at 10 µM [3]: 104%
growth at 10 µM [4]: 93.3%
growth at 10 µM [5]: 98.8%
growth at 10 µM [6]: 112%
growth at 10 µM [7]: 107%
growth at 10 µM [8]: 125%
growth at 10 µM [9]: 90.8%
growth at 10 µM [10]: 108%
growth at 10 µM [11]: 103%
growth at 10 µM [12]: 116%
growth at 10 µM [13]: 109%
growth at 10 µM [14]: 111%
growth at 10 µM [15]: 118%
growth at 10 µM [16]: 115%
growth at 10 µM [17]: 109%
growth at 10 µM [18]: 104%
growth at 10 µM [19]: 113%
growth at 10 µM [20]: 113%
growth at 10 µM [21]: 99.6%
growth at 10 µM [22]: 104%
growth at 10 µM [23]: 108%
growth at 10 µM [24]: 100%
growth at 10 µM [25]: 98.3%
growth at 10 µM [26]: 128%
growth at 10 µM [27]: 112%
growth at 10 µM [28]: 108%
growth at 10 µM [29]: 113%
growth at 10 µM [30]: 109%
growth at 10 µM [31]: 115%
growth at 10 µM [32]: 114%
growth at 10 µM [33]: 104%
growth at 10 µM [34]: 95.2%
growth at 10 µM [35]: 119%
growth at 10 µM [36]: 102%
growth at 10 µM [37]: 108%
growth at 10 µM [38]: 95.8%
growth at 10 µM [39]: 82.2%

CC(=O)Nc1ccc(C(=O)Nc2cc(CO)cc(NC(C)=O)c2)cc1
growth at 10 µM [1]: 82.2%
growth at 10 µM [2]: 101%
growth at 10 µM [3]: 99.5%
growth at 10 µM [4]: 96%
growth at 10 µM [5]: 96.6%
growth at 10 µM [6]: 106%
growth at 10 µM [7]: 107%
growth at 10 µM [8]: 109%
growth at 10 µM [9]: 89.5%
growth at 10 µM [10]: 118%
growth at 10 µM [11]: 99.4%
growth at 10 µM [12]: 106%
growth at 10 µM [13]: 106%
growth at 10 µM [14]: 106%
growth at 10 µM [15]: 115%
growth at 10 µM [16]: 108%
growth at 10 µM [17]: 107%
growth at 10 µM [18]: 100%
growth at 10 µM [19]: 96.7%
growth at 10 µM [20]: 110%
growth at 10 µM [21]: 115%
growth at 10 µM [22]: 98.3%
growth at 10 µM [23]: 108%
growth at 10 µM [24]: 96.3%
growth at 10 µM [25]: 101%
growth at 10 µM [26]: 123%
growth at 10 µM [27]: 105%
growth at 10 µM [28]: 109%
growth at 10 µM [29]: 105%
growth at 10 µM [30]: 108%
growth at 10 µM [32]: 112%
growth at 10 µM [33]: 101%
growth at 10 µM [34]: 104%
growth at 10 µM [35]: 108%
growth at 10 µM [36]: 95.3%
growth at 10 µM [37]: 108%
growth at 10 µM [38]: 94.7%
growth at 10 µM [39]: 97%

Source: ChEMBL document CHEMBL4715697, “Synthesis and biological activity of benzamide DNA minor groove binders” (2016)
